Counter-ions that a name gives are not always drawn. Like-named read-outs stand apart in the source and are kept apart here.
Experiments:
[1] = molecular target: T1, rat cerebral neuronal membranes (histamine H1 binding sites) (Rattus norvegicus, UniProt P31390); assay: Competitive displacement of [^3H]pyrilamine binding, rat cerebral neuronal membranes; conditions: for displacement of specific [^3H]pyrilamine binding (in words): rat cerebral neuronal membranes, 20 nM [^3H]pyrilamine
T1 construct: native receptors contained in rat cerebral neuronal membranes; from tissue; host or cells: cerebral tissue of male Wistar rats, membrane fraction (40,000 x g pellet)
T1 sequence (P31390 whole entry): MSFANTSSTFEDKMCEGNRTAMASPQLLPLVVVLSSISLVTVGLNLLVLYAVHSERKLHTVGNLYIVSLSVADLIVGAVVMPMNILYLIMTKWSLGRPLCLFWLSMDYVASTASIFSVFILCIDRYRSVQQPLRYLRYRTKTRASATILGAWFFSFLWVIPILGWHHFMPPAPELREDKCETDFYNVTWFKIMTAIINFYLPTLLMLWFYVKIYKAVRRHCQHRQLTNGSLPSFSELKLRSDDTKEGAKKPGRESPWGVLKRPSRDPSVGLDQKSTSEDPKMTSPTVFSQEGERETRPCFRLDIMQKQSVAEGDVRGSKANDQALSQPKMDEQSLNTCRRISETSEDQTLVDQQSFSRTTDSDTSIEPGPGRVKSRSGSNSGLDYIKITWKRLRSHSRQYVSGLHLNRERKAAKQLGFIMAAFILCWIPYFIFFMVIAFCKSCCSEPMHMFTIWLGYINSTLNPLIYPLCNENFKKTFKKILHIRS

[2] = molecular target: T2, synthesized WT-HRH1 proteoglycerosomes (Homo sapiens, UniProt P35367)
T2 sequence (P35367 whole entry): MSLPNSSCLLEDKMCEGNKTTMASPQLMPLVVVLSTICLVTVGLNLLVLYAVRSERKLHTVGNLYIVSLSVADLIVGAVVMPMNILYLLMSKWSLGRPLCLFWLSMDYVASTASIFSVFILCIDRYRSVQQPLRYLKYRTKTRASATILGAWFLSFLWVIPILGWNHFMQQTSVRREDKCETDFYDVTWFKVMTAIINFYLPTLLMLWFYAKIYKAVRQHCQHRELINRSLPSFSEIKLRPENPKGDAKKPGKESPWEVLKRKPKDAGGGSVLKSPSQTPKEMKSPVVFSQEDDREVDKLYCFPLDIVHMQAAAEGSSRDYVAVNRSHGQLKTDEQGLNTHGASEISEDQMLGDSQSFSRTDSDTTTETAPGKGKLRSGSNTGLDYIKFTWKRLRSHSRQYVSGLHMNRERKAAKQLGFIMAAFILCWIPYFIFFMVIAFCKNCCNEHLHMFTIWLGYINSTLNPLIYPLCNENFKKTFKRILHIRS
Excerpt: (§1) Eight different concentrations of each cold competitor were used in the competitive binding studies. […] The data are based on experiments performed in triplicate. The experimental conditions were the same as those used in the saturation studies.

[3] = molecular target: T2, synthesized WT-HRH1 proteoglycerosomes; assay: biochemical
Excerpt: as §1

Row | SMILES | Ki [1] | displacement of specific [^3H]pyrilamine binding (in words) [1] | displacement of specific [^3H]pyrilamine binding (in words) ([2]; synthesized receptors, 20 nM [^3H]pyrilamine) | Ki [3] | displacement of specific [^3H]pyrilamine binding (in words) [2]
1 | NC1=NCC2c3ccccc3Cc3ccccc3N12 (centres unmarked) [Epinastine, epinastine hydrochloride] | 0.288 ± 0.0615 nM | concentration-dependent inhibition | concentration-dependent inhibition | 0.332 ± 0.0989 nM | 
2 | C[C@@H](N)Cc1cnc[nH]1 [alpha methylhistamine, alpha-methylhistamine] |  | did not inhibit |  |  | did not inhibit
3 | S=C(NC1CCCCC1)N1CCC(c2cnc[nH]2)CC1 [thioperamide] |  | no displacement ability |  |  | no displacement ability

From paper PMC5808195 (Frontiers in Pharmacology, 2018)
